These results are taken from patent US6936604B2, “Bridged bicyclic amino acid-derived [1,4]benzodiazepine vasopressin receptor antagonists” (Ortho-McNeil Pharmaceutical, Inc., priority 2001, dated 2005).

One test has as its target T1, human V2 receptor (Homo sapiens, UniProt P30518).
T1 construct: expressed in transfected cells; host or cells: HEK-293
Briefly: In vitro recombinant vasopressin receptor binding assay (3H-arginine vasopressin displacement), V2. The following applies: cloned human V2 receptor membranes, HEK-293 cells. The protocol:
(§1) In Vitro Recombinant Vasopressin Receptor Binding Assay
(§2) Compounds were assessed for their ability to displace ^3H-arginine vasopressin from the human V1a or V2 receptor in HEK-293 cells. Assay buffer is 50 mM Tris-Cl, 5 mM MgCl2, 0.1% BSA (pH 7.5) containing 5 μg/mL of aprotinin, leupeptin, pepstatin, 50 μg/mL bacitracin, and 1 mM Pefabloc. ^3H-vasopressin is ^3H-arginine-8-vasopressin (68.5 Ci/mmol, final concentration in assay is 0.65-0.75 nM). Into wells of 96-well round bottom polypropylene plates were added buffer, test compound, membrane (containing cloned human V1a or V2 receptor) and ^3H-vasopressin. The reaction plates were allowed to sit at room temperature for one hour. The samples were filtered through Unifilter GF/C plates (presoaked in 0.3 polyethyleneimine). The plates were washed 5 times with cold physiological saline containing 0.05% Tween 20. After drying, the bottom of the filter plates were sealed and 0.025 mL of Microscint-20 was added to each filter. The top of the plate was sealed, and the plate was counted.

In another test the target is T2, human V1a receptor (Homo sapiens, UniProt P37288).
T2 construct: expressed in transfected cells; host or cells: HEK-293
The experiment in a line: In vitro recombinant vasopressin receptor binding assay (3H-arginine vasopressin displacement), V1a. The following applies: cloned human V1a receptor membranes, HEK-293 cells. As to the method:
as §1, §2

Test [1] relates to conscious hydrated male rats. The experiment in a line: Diuresis study, acute diuretic effect after oral administration. The note with it: 4 hours urine collection, mean±SE. It counts as in vivo, Sprague Dawley rats. The protocol: The acute diuretic effect of compounds of the invention after oral administration was tested according to the procedure described herein.
Mature male Sprague Dawley rats, 200-300 gms, from Charles River Labs Inc. were housed one rat per cage, in a rodent room. Room temperature was maintained at […] and humidity at 30-70%. Room lighting was on a 12 hrs light/12 hrs dark cycle. Rats were fed laboratory rodent diet, #5001 (supplied from Purina Mills, St.Louis, Mo. via W. F. Fisher, Bound Brook, N.J.).
Four different concentrations of test compound were prepared. For each dose, compound was prepared as a uniform suspension in 0.5% methylcellulose vehicle using a water bath sonicator to ensure uniform suspension and dosed in a volume of 2 ml/kg.
All animals were fasted for 18 hours and weights were taken and recorded for each animal. Animals were dosed orally with drug via gavage needle. After oral dosing, animals were placed into metabolism racks for 4 hours. The urine was collected and the volume measured. Aliquots of 0.5 mL were stored at 4° C. for later analysis.
Each value represents the mean±SE. *Data has a p value of <0.05 versus vehicle using Dunnett's Multiple Comparison Test. **Data has a p value of <0.01 versus vehicle. ^aNumber of animals in parentheses represent the number of animals providing osmolality values (if different than the number of animals providing urine volume values).

Marks after values point to notes of the source that are not given here.

T2 sequence (P37288 whole entry): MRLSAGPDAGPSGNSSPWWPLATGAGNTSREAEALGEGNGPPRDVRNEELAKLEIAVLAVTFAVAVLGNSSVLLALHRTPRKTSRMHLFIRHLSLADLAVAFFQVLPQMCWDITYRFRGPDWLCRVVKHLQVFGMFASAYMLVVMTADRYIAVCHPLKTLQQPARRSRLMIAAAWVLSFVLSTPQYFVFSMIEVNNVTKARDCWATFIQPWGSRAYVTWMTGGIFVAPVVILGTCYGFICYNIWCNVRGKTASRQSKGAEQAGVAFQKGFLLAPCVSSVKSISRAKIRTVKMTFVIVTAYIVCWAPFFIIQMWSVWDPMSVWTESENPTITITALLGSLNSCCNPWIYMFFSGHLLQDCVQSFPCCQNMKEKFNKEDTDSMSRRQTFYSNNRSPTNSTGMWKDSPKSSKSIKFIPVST

As for `O=C(Nc1ccc(C(=O)N2C[C@@H]3C4CCC(CC4)N3Cc3ccccc32)c(Cl)c1)c1ccccc1-c1ccccc1` [Compound 13, N-[4-[[(6aS)-6,6a,7,8,9,10-hexahydro-7,10-ethanopyrido[2,1-c][1,4]benzodiazepin-5(12H)-yl]carbonyl]-3-chlorophenyl]-[1,1′-biphenyl]-2-carboxamide], at human V2 receptor, the IC50 turned out to be 0.024 µM.
Turning to `O=C(Nc1ccc(C(=O)N2C[C@@H]3C4CCC(C4)N3Cc3cc(Cl)ccc32)cc1)c1ccccc1F` (stereo partly drawn) [Compound 10, N-[4-[[(6aS)-2-chloro-6,6a,7,8,9,10-hexahydro-7,10-methanopyrido[2,1-c][1,4]benzodiazepin-5(12H)-yl]carbonyl]phenyl]-2-fluoro-benzamide], the IC50 at human V1a receptor stood at 0.005 µM; on human V2 receptor, 0.01 µM.
On to `O=C(Nc1ccc(C(=O)N2C[C@@H]3C4CCC(C4)N3Cc3ccccc32)c(Cl)c1)c1ccccc1-c1ccccc1` (stereo partly drawn) [Compound 4, N-[4-[[(6aS)-6,6a,7,8,9,10-hexahydro-7,10-methanopyrido[2,1-c][1,4]benzodiazepin-5(12H)-yl]carbonyl]-3-chlorophenyl]-[1,1′-biphenyl]-2-carboxamide], for which the IC50 worked out at 0.024 µM on human V1a receptor and 0.004 µM at human V2 receptor. Also, the “Urine Osmolality” value in test [1] (0.3 mg/Kg oral) is 444 ± 79* mOsm/kg; in test [1] (1.0 mg/Kg oral) it was 299 ± 34* mOsm/kg; in test [1] (3.0 mg/Kg oral) it was 180 ± 9* mOsm/kg; in test [1] (10 mg/Kg oral), 138 ± 11* mOsm/kg. For the same molecule, the “Urine Volume” value in test [1] (0.3 mg/Kg oral) was 2.5 ± 0.3 mL; in test [1] (1.0 mg/Kg oral), 6.0 ± 0.7* mL; in test [1] (3.0 mg/Kg oral), 15.1 ± 1.4* mL; in test [1] (10 mg/Kg oral) it was 29.9 ± 2.0* mL.
As for `O=C(Nc1ccc(C(=O)N2C[C@@H]3C4CCC(C4)N3Cc3cc(Cl)ccc32)cc1)c1ccccc1Cl` (stereo partly drawn) [Compound 11, N-[4-[[(6aS)-2-chloro-6,6a,7,8,9,10-hexahydro-7,10-methanopyrido[2,1-c][1,4]benzodiazepin-5(12H)-yl]carbonyl]phenyl]-2-chloro-benzamide], the IC50 at human V1a receptor was 0.004 µM; on human V2 receptor, 0.007 µM.
Regarding `Cc1ccc(-c2ccccc2C(=O)Nc2ccc(C(=O)N3C[C@@H]4C5CCC(CC5)N4Cc4cc(Cl)ccc43)cc2)cc1` [Compound 16, N-[4-[[(6aS)-2-chloro-6,6a,7,8,9,10-hexahydro-7,10-ethanopyrido[2,1-c][1,4]benzodiazepin-5(12H)-yl]carbonyl]phenyl]-4′-methyl-[1,1′-biphenyl]-2-carboxamide], the figures for the IC50 on human V1a receptor and on human V2 receptor were 0.059 µM and 0.072 µM, respectively.
Turning to `O=C(Nc1ccc(C(=O)N2C[C@@H]3C4CCC(C4)N3Cc3cc(Cl)ccc32)cc1)c1ccccc1-c1ccc(F)cc1` (stereo partly drawn) [Compound 9, N-[4-[[(6aS)-2-chloro-6,6a,7,8,9,10-hexahydro-7,10-methanopyrido[2,1-c][1,4]benzodiazepin-5(12H)-yl]carbonyl]phenyl]-4′-fluoro-[1,1′-biphenyl]-2-carboxamide], the IC50 worked out at 0.068 µM at human V1a receptor and 0.026 µM on human V2 receptor.
With `O=C(Nc1ccc(C(=O)N2CC3C4CCC(CC4)N3Cc3ccccc32)c(Cl)c1)c1ccccc1-c1ccccc1` (racemic) [Compound 2, N-[4-[(6,6a,7,8,9,10-hexahydro-7,10-ethanopyrido[2,1-c][1,4]benzodiazepin-5(12H)-yl)carbonyl]-3-chlorophenyl]-[1,1′-biphenyl]-2-carboxamide], the half-inhibitory concentration (IC50) on human V2 receptor was determined as 0.004 µM.
Consider `Cc1ccc(-c2ccccc2C(=O)Nc2ccc(C(=O)N3C[C@@H]4C5CCC(C5)N4Cc4cc(Cl)ccc43)cc2)cc1` (stereo partly drawn) [Compound 6, N-[4-[[(6aS)-2-chloro-6,6a,7,8,9,10-hexahydro-7,10-methanopyrido[2,1-c][1,4]benzodiazepin-5(12H)-yl]carbonyl]phenyl]-4′-methyl-[1,1′-biphenyl]-2-carboxamide], for which the IC50 on human V1a receptor came out at 0.024 µM; on human V2 receptor, 0.005 µM. Also, the “Urine Osmolality” value is 387 ± 15 mOsm/kg in test [1] (1.0 mg/Kg oral), 226 ± 9** mOsm/kg in test [1] (3.0 mg/Kg oral) and 159 ± 9** mOsm/kg in test [1] (10 mg/Kg oral). Also, the “Urine Volume” value in test [1] (1.0 mg/Kg oral) was 2.9 ± 0.2 mL; in test [1] (3.0 mg/Kg oral), 5.8 ± 0.5** mL; in test [1] (10 mg/Kg oral), 17.8 ± 1.3** mL.
With `Cc1ccc(F)cc1C(=O)Nc1ccc(C(=O)N2C[C@@H]3C4CCC(CC4)N3Cc3ccccc32)c(Cl)c1` [Compound 14, N-[4-[[(6aS)-6,6a,7,8,9,10-hexahydro-7,10-ethanopyrido[2,1-c][1,4]benzodiazepin-5(12H)-yl]carbonyl]-3-chlorophenyl]-5-fluoro-2-methyl-benzamide], the IC50 on human V2 receptor amounted to 0.019 µM.
With `Cc1ccc(-c2ccccc2C(=O)Nc2ccc(C(=O)N3C[C@@H]4C5CCC(C5)N4Cc4ccccc43)c(Cl)c2)cc1` (stereo partly drawn) [Compound 7, N-[4-[[(6aS)-6,6a,7,8,9,10-hexahydro-7,10-methanopyrido[2,1-c][1,4]benzodiazepin-5(12H)-yl]carbonyl]-3-chlorophenyl]-4′-methyl-[1,1′-biphenyl]-2-carboxamide], the IC50 on human V1a receptor is 0.035 µM; at human V2 receptor, 0.003 µM.
For “N-[4-[[(6aS)-2-chloro-6,6a,7,8,9,10-hexahydro-7,10-methanopyrido[2,1-c][1,4]benzodiazepin-5(12H)-yl]carbonyl]-3-chlorophenyl]-2-(trifluoromethyl)-benzamide [Compound 12]”, in that order: 0.01 µM and 0.015 µM.
In the case of `O=C(Nc1ccc(C(=O)N2C[C@H]3C4CCC(C4)N3Cc3ccccc32)c(Cl)c1)c1ccccc1-c1ccccc1` (stereo partly drawn) [Compound 5, N-[4-[[(6aR)-6,6a,7,8,9,10-hexahydro-7,10-methanopyrido[2,1-c][1,4]benzodiazepin-5(12H)-yl]carbonyl]-3-chlorophenyl]-[1,1′-biphenyl]-2-carboxamide], the IC50 at human V2 receptor amounted to 0.015 µM. Besides, the “Urine Osmolality” value was 408 ± 37* mOsm/kg in test [1] (0.3 mg/Kg oral), 303 ± 29* mOsm/kg in test [1] (1.0 mg/Kg oral), 238 ± 18* mOsm/kg in test [1] (3.0 mg/Kg oral) and 172 ± 9* mOsm/kg in test [1] (10 mg/Kg oral). The “Urine Volume” value in test [1] (0.3 mg/Kg oral) is 1.4 ± 0.1* mL; in test [1] (1.0 mg/Kg oral), 3.4 ± 0.4* mL; in test [1] (3.0 mg/Kg oral) it was 9.4 ± 1.1* mL; in test [1] (10 mg/Kg oral), 19.5 ± 1.4* mL.
For `O=C(Nc1ccc(C(=O)N2C[C@@H]3C4CCC(C4)N3Cc3ccccc32)c(Cl)c1)c1ccccc1-c1ccccc1` (mixture of isomers) [Compound 3, N-[4-[[(6aS)-6,6a,7,8,9,10-hexahydro-7,10-methanopyrido[2,1-c][1,4]benzodiazepin-5(12H)-yl]carbonyl]-3-chlorophenyl]-[1,1′-biphenyl]-2-carboxamide], the IC50 at human V2 receptor came to 0.015 µM.
Take `O=C(Nc1ccc(C(=O)N2C[C@@H]3C4CCC(CC4)N3Cc3cc(Cl)ccc32)cc1)c1ccccc1Cl` [Compound 15, N-[4-[[(6aS)-2-chloro-6,6a,7,8,9,10-hexahydro-7,10-ethanopyrido[2,1-c][1,4]benzodiazepin-5(12H)-yl]carbonyl]phenyl]-2-chloro-benzamide]: the IC50 came out at 0.013 µM on human V1a receptor and 0.035 µM at human V2 receptor.

As usually defined, the IC50 is the concentration that gives 50% inhibition.
